# Assay results as given in patent publication US20100267561A1, “HERBICIDAL PYRIDAZINONE DERIVATIVES” (priority 2007, published 2010).
# What was measured:
# Assay in all cases: Test E pre-/postemergence plant response
# Format in all cases: in vivo
# Settings in all cases: scale 0 to 100
# [1] = test system: green foxtail (Setaria viridis)
# How it was run: (§1)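 In this greenhouse assay, sown seeds received preemergence treatment and young plants of 2 to 18 cm (1- to 4-leaf stage) received postemergence treatment, both with compound in a non-phytotoxic solvent and surfactant vehicle. Effects were rated visually 14 to 21 days later on a 0–100 control scale.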
# [2] = test system: guineagrass (Panicum maximum)
# How it was run: as §1
# [3] = test system: itchgrass (Rottboellia cochinchinensis)
# How it was run: as §1
# [4] = test system: surinam grass (Brachiaria decumbens)
# How it was run: as §1
# [5] = test system: purple nutsedge (Cyperus rotundus)
# How it was run: as §1
# [6] = test system: annual bluegrass (Poa annua)
# How it was run: as §1
# [7] = test system: pitted morningglory (Ipomoea lacunosa)
# How it was run: as §1
# [8] = test system: common mallow (Malva sylvestris)
# How it was run: as §1
# [9] = test system: bermudagrass (Cynodon dactylon)
# How it was run: as §1
# [10] = test system: goosegrass (Eleusine indica)
# How it was run: as §1
# [11] = test system: barnyardgrass (Echinochloa crus-galli)
# How it was run: as §1
# [12] = test system: johnsongrass (Sorghum halepense)
# How it was run: as §1
structure (smiles),measurement,setting,value
Cn1ncc(O)c(-c2nn(-c3ccc(Cl)cc3)cc2Br)c1=O [Compound 31],"Plant response rating, Foxtail, Green","[1]; 8 g ai/ha, Preemergence",0
same,"Plant response rating, Foxtail, Green","[1]; 16 g ai/ha, Preemergence",5
same,"Plant response rating, Foxtail, Green","[1]; 31 g ai/ha, Preemergence",60
same,"Plant response rating, Foxtail, Green","[1]; 62 g ai/ha, Preemergence",90
same,"Plant response rating, Foxtail, Green","[1]; Postemergence, 8 g ai/ha",50
same,"Plant response rating, Foxtail, Green","[1]; Postemergence, 16 g ai/ha",60
same,"Plant response rating, Foxtail, Green","[1]; Postemergence, 31 g ai/ha",70
same,"Plant response rating, Foxtail, Green","[1]; Postemergence, 62 g ai/ha",75
same,"Plant response rating, Guineagrass","[2]; 16 g ai/ha, Preemergence",90
same,"Plant response rating, Guineagrass","[2]; 31 g ai/ha, Preemergence",100
same,"Plant response rating, Guineagrass","[2]; 62 g ai/ha, Preemergence",100
same,"Plant response rating, Guineagrass","[2]; Postemergence, 8 g ai/ha",75
same,"Plant response rating, Guineagrass","[2]; Postemergence, 16 g ai/ha",80
same,"Plant response rating, Guineagrass","[2]; Postemergence, 31 g ai/ha",85
same,"Plant response rating, Guineagrass","[2]; Postemergence, 62 g ai/ha",90
same,"Plant response rating, Itchgrass","[3]; 16 g ai/ha, Preemergence",0
same,"Plant response rating, Itchgrass","[3]; 31 g ai/ha, Preemergence",75
same,"Plant response rating, Itchgrass","[3]; 62 g ai/ha, Preemergence",75
same,"Plant response rating, Itchgrass","[3]; Postemergence, 8 g ai/ha",50
same,"Plant response rating, Itchgrass","[3]; Postemergence, 16 g ai/ha",60
same,"Plant response rating, Itchgrass","[3]; Postemergence, 31 g ai/ha",65
same,"Plant response rating, Itchgrass","[3]; Postemergence, 62 g ai/ha",70
same,"Plant response rating, Surinam Grass","[4]; 16 g ai/ha, Preemergence",20
same,"Plant response rating, Surinam Grass","[4]; 31 g ai/ha, Preemergence",95
same,"Plant response rating, Surinam Grass","[4]; 62 g ai/ha, Preemergence",95
same,"Plant response rating, Surinam Grass","[4]; Postemergence, 8 g ai/ha",20
same,"Plant response rating, Surinam Grass","[4]; Postemergence, 16 g ai/ha",50
same,"Plant response rating, Surinam Grass","[4]; Postemergence, 31 g ai/ha",50
same,"Plant response rating, Surinam Grass","[4]; Postemergence, 62 g ai/ha",75
same,"Plant response rating, Nutsedge, Purple","[5]; 16 g ai/ha, Preemergence",0
same,"Plant response rating, Nutsedge, Purple","[5]; 31 g ai/ha, Preemergence",0
same,"Plant response rating, Nutsedge, Purple","[5]; 62 g ai/ha, Preemergence",0
same,"Plant response rating, Nutsedge, Purple","[5]; Postemergence, 8 g ai/ha",0
same,"Plant response rating, Nutsedge, Purple","[5]; Postemergence, 16 g ai/ha",0
same,"Plant response rating, Nutsedge, Purple","[5]; Postemergence, 31 g ai/ha",0
same,"Plant response rating, Nutsedge, Purple","[5]; Postemergence, 62 g ai/ha",0
same,"Plant response rating, Bluegrass","[6]; 8 g ai/ha, Preemergence",0
same,"Plant response rating, Bluegrass","[6]; 16 g ai/ha, Preemergence",0
same,"Plant response rating, Bluegrass","[6]; 31 g ai/ha, Preemergence",0
same,"Plant response rating, Bluegrass","[6]; 62 g ai/ha, Preemergence",0
same,"Plant response rating, Bluegrass","[6]; Postemergence, 8 g ai/ha",0
same,"Plant response rating, Bluegrass","[6]; Postemergence, 16 g ai/ha",0
same,"Plant response rating, Bluegrass","[6]; Postemergence, 31 g ai/ha",0
same,"Plant response rating, Bluegrass","[6]; Postemergence, 62 g ai/ha",10
same,"Plant response rating, Morningglory","[7]; 16 g ai/ha, Preemergence",0
same,"Plant response rating, Morningglory","[7]; 31 g ai/ha, Preemergence",0
same,"Plant response rating, Morningglory","[7]; 62 g ai/ha, Preemergence",0
same,"Plant response rating, Morningglory","[7]; Postemergence, 8 g ai/ha",0
same,"Plant response rating, Morningglory","[7]; Postemergence, 16 g ai/ha",0
same,"Plant response rating, Morningglory","[7]; Postemergence, 31 g ai/ha",0
same,"Plant response rating, Morningglory","[7]; Postemergence, 62 g ai/ha",0
same,"Plant response rating, Mallow","[8]; 31 g ai/ha, Preemergence",0
same,"Plant response rating, Mallow","[8]; 62 g ai/ha, Preemergence",0
same,"Plant response rating, Mallow","[8]; Postemergence, 8 g ai/ha",0
same,"Plant response rating, Mallow","[8]; Postemergence, 16 g ai/ha",0
same,"Plant response rating, Mallow","[8]; Postemergence, 31 g ai/ha",0
same,"Plant response rating, Mallow","[8]; Postemergence, 62 g ai/ha",0
same,"Plant response rating, Bermudagrass","[9]; 8 g ai/ha, Preemergence",0
same,"Plant response rating, Bermudagrass","[9]; 16 g ai/ha, Preemergence",75
same,"Plant response rating, Bermudagrass","[9]; 31 g ai/ha, Preemergence",95
same,"Plant response rating, Bermudagrass","[9]; 62 g ai/ha, Preemergence",100
same,"Plant response rating, Bermudagrass","[9]; Postemergence, 8 g ai/ha",65
same,"Plant response rating, Bermudagrass","[9]; Postemergence, 16 g ai/ha",75
same,"Plant response rating, Bermudagrass","[9]; Postemergence, 31 g ai/ha",90
same,"Plant response rating, Bermudagrass","[9]; Postemergence, 62 g ai/ha",95
same,"Plant response rating, Goosegrass","[10]; 8 g ai/ha, Preemergence",20
same,"Plant response rating, Goosegrass","[10]; 16 g ai/ha, Preemergence",35
same,"Plant response rating, Goosegrass","[10]; 31 g ai/ha, Preemergence",100
same,"Plant response rating, Goosegrass","[10]; 62 g ai/ha, Preemergence",100
same,"Plant response rating, Goosegrass","[10]; Postemergence, 8 g ai/ha",35
same,"Plant response rating, Goosegrass","[10]; Postemergence, 16 g ai/ha",50
same,"Plant response rating, Goosegrass","[10]; Postemergence, 31 g ai/ha",70
same,"Plant response rating, Goosegrass","[10]; Postemergence, 62 g ai/ha",75
same,"Plant response rating, Barnyardgrass","[11]; 8 g ai/ha, Preemergence",0
same,"Plant response rating, Barnyardgrass","[11]; 16 g ai/ha, Preemergence",15
same,"Plant response rating, Barnyardgrass","[11]; 31 g ai/ha, Preemergence",75
same,"Plant response rating, Barnyardgrass","[11]; 62 g ai/ha, Preemergence",90
same,"Plant response rating, Barnyardgrass","[11]; Postemergence, 8 g ai/ha",35
same,"Plant response rating, Barnyardgrass","[11]; Postemergence, 16 g ai/ha",70
same,"Plant response rating, Barnyardgrass","[11]; Postemergence, 31 g ai/ha",75
same,"Plant response rating, Barnyardgrass","[11]; Postemergence, 62 g ai/ha",100
same,"Plant response rating, Johnsongrass","[12]; 16 g ai/ha, Preemergence",25
same,"Plant response rating, Johnsongrass","[12]; 31 g ai/ha, Preemergence",80
same,"Plant response rating, Johnsongrass","[12]; 62 g ai/ha, Preemergence",98
same,"Plant response rating, Johnsongrass","[12]; Postemergence, 8 g ai/ha",40
same,"Plant response rating, Johnsongrass","[12]; Postemergence, 16 g ai/ha",60
same,"Plant response rating, Johnsongrass","[12]; Postemergence, 31 g ai/ha",75
same,"Plant response rating, Johnsongrass","[12]; Postemergence, 62 g ai/ha",100
